# Test results taken from patent US20250064763A1, “METHODS OF TREATMENT OF PRIMARY BILIARY CHOLANGITIS” (Ipsen Pharma, priority 2023, published 2025).
# Assays:
# patients with PBC = details: cited from earlier work
# subjects with PBC = assay: Clinical study of elafibranor, biochemical markers in plasma; details: human, in vivo
compound,measurement,setting,value
"CC[C@H]1[C@@H](O)[C@@H]2[C@H](CC[C@]3(C)[C@@H]([C@H](C)CCC(=O)O)CC[C@@H]23)[C@@]2(C)CC[C@@H](O)C[C@@H]12 [OCA, obeticholic acid]",effect on pruritus,"patients with PBC; phase III study, OCA groups compared to placebo",exacerbate pruritus
same,liver injury,"patients with PBC; post marketing reports, PBC patients with compensated or decompensated cirrhosis",led to hepatic decompensation and liver failure
CSc1ccc(C(=O)/C=C/c2cc(C)c(OC(C)(C)C(=O)O)c(C)c2)cc1 [elafibranor],biochemical markers in the plasma,subjects with PBC,relevant reduction
